Species on record: Rattus norvegicus
Experiment: Open TG-GATES - Regimen: Daily Repeat
Assay type: toxicity, organism-based, Sprague-Dawley
Set-up: regimen Daily Repeat, gender Male, age 6 weeks
Conditions: in vivo, po, 60 mg/kg, […], route gavage, dose level Middle; for KIDNEY_L / KIDNEY_R / KIDNEY_TOTAL: tissue Kidney; for LIVER: tissue Liver; for A/G / ALP / ALT / AST / BUN / CRE / Ca / Cl / DBIL / GLC / IP / K / LDH / Na / PL / RALB / TBIL / TC / TG / TP / gamma-GTP: tissue Plasma

Cn1c(=O)c2[nH]cnc2n(C)c1=O.O [THEOPHYLLINE]
Lym (tissue Blood, time 28 day): 78% | MCH (tissue Blood, time 28 day): 19.8 pg | MCHC (tissue Blood, time 28 day): 34.5% | MCV (tissue Blood, time 28 day): 57.3 fL | Mono (tissue Blood, time 28 day): 3% | Neu (tissue Blood, time 28 day): 16.8% | PT (tissue Blood, time 28 day): 15.6 s | Plat (tissue Blood, time 28 day): 99.5 x10_4/uL | RBC (tissue Blood, time 28 day): 798 x10_4/ul | Ret (tissue Blood, time 28 day): 3.3% | WBC (tissue Blood, time 28 day): 104.8 x10_2/uL | KIDNEY_L (time 7 day): 1.2 g | KIDNEY_R (time 7 day): 1.2 g | KIDNEY_TOTAL (time 7 day): 2.4 g | KIDNEY_L (time 14 day): 1.3 g | KIDNEY_R (time 14 day): 1.3 g | KIDNEY_TOTAL (time 14 day): 2.6 g | KIDNEY_L (time 28 day): 1.5 g | KIDNEY_R (time 28 day): 1.5 g | KIDNEY_TOTAL (time 28 day): 3 g | LIVER (time 7 day): 11.6 g | LIVER (time 14 day): 13.8 g | LIVER (time 28 day): 16.3 g | A/G (time 7 day): 1.2 | ALP (time 7 day): 1497.8 IU/L | ALT (time 7 day): 42.2 IU/L | AST (time 7 day): 77.6 IU/L | BUN (time 7 day): 17.6 mg/dL | CRE (time 7 day): 0.2 mg/dL | Ca (time 7 day): 10.4 mg/dL | Cl (time 7 day): 107 meq/L | DBIL (time 7 day): 0 mg/dL | GLC (time 7 day): 195.4 mg/dL | IP (time 7 day): 7.8 mg/dL | K (time 7 day): 4.3 meq/L | LDH (time 7 day): 175.4 IU/L | Na (time 7 day): 142.2 meq/L | PL (time 7 day): 140.2 mg/dL | RALB (time 7 day): 3 g/dL | TBIL (time 7 day): 0.006 mg/dL | TC (time 7 day): 72 mg/dL | TG (time 7 day): 86.8 mg/dL | TP (time 7 day): 5.6 g/dL | gamma-GTP (time 7 day): 1.6 IU/L | A/G (time 14 day): 1.1 | ALP (time 14 day): 1338.2 IU/L | ALT (time 14 day): 43 IU/L | AST (time 14 day): 73.8 IU/L | BUN (time 14 day): 17 mg/dL | CRE (time 14 day): 0.2 mg/dL | Ca (time 14 day): 10.3 mg/dL | Cl (time 14 day): 105.6 meq/L | DBIL (time 14 day): 0 mg/dL | GLC (time 14 day): 181 mg/dL | IP (time 14 day): 8 mg/dL | K (time 14 day): 4.1 meq/L | LDH (time 14 day): 178 IU/L | Na (time 14 day): 142.2 meq/L | PL (time 14 day): 143.4 mg/dL | RALB (time 14 day): 3.1 g/dL | TBIL (time 14 day): 0.006 mg/dL | TC (time 14 day): 79 mg/dL | TG (time 14 day): 83.6 mg/dL | TP (time 14 day): 5.8 g/dL | gamma-GTP (time 14 day): 2.2 IU/L | A/G (time 28 day): 1.1 | ALP (time 28 day): 1071.4 IU/L | ALT (time 28 day): 40.8 IU/L | AST (time 28 day): 67.8 IU/L | BUN (time 28 day): 16.2 mg/dL | CRE (time 28 day): 0.2 mg/dL | Ca (time 28 day): 10.3 mg/dL | Cl (time 28 day): 106 meq/L | DBIL (time 28 day): 0 mg/dL | GLC (time 28 day): 189.8 mg/dL | IP (time 28 day): 7.4 mg/dL | K (time 28 day): 4.1 meq/L | LDH (time 28 day): 137.6 IU/L | Na (time 28 day): 143.2 meq/L | PL (time 28 day): 135.8 mg/dL | RALB (time 28 day): 3.2 g/dL | TBIL (time 28 day): 0.024 mg/dL | TC (time 28 day): 71.2 mg/dL | TG (time 28 day): 97.4 mg/dL | TP (time 28 day): 6.1 g/dL | gamma-GTP (time 28 day): 1.8 IU/L
